Source: patent publication US20080044358A1, “METHODS FOR LYMPH SYSTEM IMAGING” (priority 2006, published 2008)
Like-named read-outs stand apart in the source and are kept apart here.

Legend:
[1] = tested on: VX2 tumor bearing rabbits, metastatic iliacal lymph nodes; test: MR imaging of lymph node metastases in VX2 tumor rabbit model after intravenous injection; format: in vivo, New Zealand White rabbits; conditions: for delineation / differentiation of functional and metastatic lymph node tissue: i.v., MS-325 0.05 mmol Gd/kg, Gd-DTPA 0.2 mmol Gd/kg, intraindividual comparison
Method: New Zealand White rabbits (3-4 kg, n=6) were inoculated intramuscularly into the thigh with 2 to 3 pieces (1×1 mm) of VX2 carcinoma cells to produce metastases in […] nodes. The imaging experiments were performed 3 to 6 weeks after the injection of tumor cells. […] Contrast agents: […] Imaging: Intraindividual comparison of lymphographic effects in […] nodes. day 1: Gd-DTPA (5 to 120 minutes p.i.). day 2: […] Assessment of technical success and quality of MR imaging, and detection of lymph node metastases. Histology: Microscopic examination after H/E staining; correlation with MR findings.

[2] = tested on: guinea pigs with stimulated (enlarged) popliteal lymph nodes; conditions: for ratio of signal intensity lymph node to muscle / % signal enhancement popliteal lymph node: 0.05 mmol/kg i.v. bolus; for % signal enhancement popliteal lymph node: T1-weighted MR 1.5 T
Method: Female guinea pigs (370-450 g, n=3) had their lymph nodes stimulated by egg yolk emulsion (0.1 mL) intramuscularly in the thigh and lower legs on six days. MS-325 (0.05 mmol/kg) was administered as an i.v. bolus
MR system: Head scanner (Allegra, 1.5 Tesla; Siemens AG, Erlangen, Germany), T1-weighted sequence (T1-TSE, TR/TE 666/12 ms, slice thickness 1.1 mm, acquisition time 3:49).
Imaging and analysis: The animals were imaged prior to contrast agent administration and 1, 15, 30, 60, 90, 120, and […] post injection. The percent signal intensity enhancement was calculated in the popliteal lymph nodes and in surrounding muscle. The ratio of signal intensity between the lymph node and the surrounding muscle was also determined.

[3] = 5 to 15 min after intravenous injection, 0.05 mmol Gd/kg body weight
[4] = 0 min post injection (prior to contrast agent)

`O=C([O-])CN(CCN(CC(=O)[O-])CC(=O)O)CCN(CC(=O)[O-])CC(=O)O.[Gd+3]` [Gd-DTPA, reference compound] was tested, and the “enhancement in the whole lymph node” value ([1]; after intravenous injection, 0.2 mmol Gd/kg, T1-weighted MR) was “only a slight and inhomogeneous enhancement” and the “delineation / differentiation of functional and metastatic lymph node tissue” value [1] was “does not allow an effective differentiation”.

`O=C([O-])CN(CCN(CC(=O)[O-])C[C@H](COP(=O)([O-])OC1CCC(c2ccccc2)(c2ccccc2)CC1)N(CC(=O)[O-])CC(=O)[O-])CC(=O)[O-].[Gd+3].[H+].[H+].[H+]` [MS-325] was tested, and the “appearance of the metastases (FIGS. 1 and 2, coronal MR images)” value [1, 3] was “remains dark”, the “enhancement in the functional lymph node tissue (FIGS. 1 and 2, coronal MR images)” value [1, 3] was “bright and homogeneous enhancement” and the “enhancement of the metastatic tissue” value ([1]; after intravenous injection, 0.05 mmol Gd/kg, T1-weighted MR) was “only a slight enhancement”. The “signal increase in the functional lymph node tissue” value ([1]; between 5 and 30 min after intravenous injection, 0.05 mmol Gd/kg, T1-weighted MR) was “rapid and strong signal increase”, the “delineation / differentiation of functional and metastatic lymph node tissue” value [1] was “excellent delineation of the lymph node metastases” and the “ratio of signal intensity lymph node to muscle” value (shortened to “ratio”) [2, 4] was 1.2 ± 0.1. The “% signal enhancement popliteal lymph node” value [2, 4] was 0 ± 0%, the “ratio” value ([2]; 1 min post injection) was 1.6 ± 0.1 and the “% signal enhancement popliteal lymph node” value ([2]; 1 min post injection) was 87 ± 11%. For the same compound, the “ratio” value ([2]; 15 min post injection) was 1.4 ± 0.1, the “% signal enhancement popliteal lymph node” value ([2]; 15 min post injection) was 67 ± 11% and the “ratio” value ([2]; 30 min post injection) was 1.4 ± 0.1. The “% signal enhancement popliteal lymph node” value ([2]; 30 min post injection) was 57 ± 6%, the “ratio” value ([2]; 60 min post injection) was 1.3 ± 0.1 and the “% signal enhancement popliteal lymph node” value ([2]; 60 min post injection) was 45 ± 6%. For the same compound, the “ratio” value ([2]; 90 min post injection) was 1.3 ± 0.1, the “% signal enhancement popliteal lymph node” value ([2]; 90 min post injection) was 37 ± 4% and the “ratio” value ([2]; 120 min post injection) was 1.3 ± 0.1. The “% signal enhancement popliteal lymph node” value ([2]; 120 min post injection) was 31 ± 6%, the “ratio” value ([2]; 2440 min post injection) was 1.1 ± 0.2 and the “% signal enhancement popliteal lymph node” value ([2]; 2440 min post injection) was −8 ± 14%. The “signal and contrast after 24 hours” value ([2]; after 24 hours, 0.05 mmol/kg) was “returned to baseline levels”, the “contrast between the lymph node and the surrounding muscle” value ([2]; after injection, 0.05 mmol/kg) was “increased” and the “enhancement of stimulated (enlarged) lymph nodes” value ([2]; after injection, 0.05 mmol/kg) was “positive and persistent enhancement”.
